How the values were obtained:
[1] = test system: bleeding events in patients hospitalized for acute medical illness; test: MAGELLAN (Study 1): safety, bleeding events and adverse events; type: in vivo, human
Text: The safety component of Criteria for Evaluation was the primary safety endpoint of incidence of the composite of treatment-emergent major bleeding events and non-major clinically relevant bleeding events observed during treatment and not later than 2 days after the last intake of double-blind study drug.
The primary safety outcome of the study was the treatment-emergent clinically relevant bleeding events, which were a composite of treatment-emergent adjudicated major bleeding events and clinically relevant non-major bleeding events.
The safety analysis was performed on 7998 randomized subjects who received at least one dose of study drug, rivaroxaban (3997 subjects) or enoxaparin (4001 subjects).
The primary safety outcome of the study was the assessment of clinically relevant bleeding events, which are a composite of treatment-emergent adjudicated major bleeding events and clinically relevant non-major bleeding events.

[2] = test system: coagulation parameters (PT, PiCT, D-dimer); test: MAGELLAN (Study 1): pharmacodynamics (PT, PiCT, D-dimer); type: in vivo, human
Protocol: Full profile pharmacodynamics (PD) sampling was performed in parallel to the PK samples on Day 1 and Day 10. In addition, sparse PD sampling was performed in nearly all subjects at 5 predefined time points: prior to study drug administration, around the time of peak plasma concentrations (2 to 4 hours after intake of the rivaroxaban tablet or rivaroxaban placebo tablet) on the first, 10th and 35th day of study drug administration, and before study drug administration on Day 10.
Coagulation parameters assessed included international normalized ratio (INR), prothrombin time (PT), prothrombinase-induced clotting time (PiCT), and the fibrin degradation product, D-dimer. Pharmacodynamic parameters assessed included changes to baseline of the maximal effect (Emax) and changes to baseline at trough (Etrough).
Two sets of samples were evaluated for PD parameters: Full profile PD sampling in parallel to the PK samples on Day 1 and Day 10. In addition, sparse PD sampling in nearly all subjects at 5 predefined time points: prior to study drug administration, approximately the time of peak plasma concentrations (2 to 4 hours after intake of the rivaroxaban tablet or rivaroxaban placebo tablet) on the first, 10th and 35th day of study drug administration, and before study drug administration on Day 10.

[3] = test system: venous thromboembolism (VTE) in MAGELLAN subpopulation; test: Retrospective analysis of MAGELLAN subpopulation (five bleeding risk factors excluded): efficacy; type: in vivo, human
Text: (§1) Using key exclusion criteria from Study 2: MARINER to exclude subjects with a higher risk of bleeding, a subpopulation of Study 1: MAGELLAN was retrospectively analyzed to re-evaluate benefit-risk in this subpopulation, which included efficacy endpoints of symptomatic VTE and VTE-related death and safety endpoints of major bleeding events. The key exclusion criteria from Study 2: MARINER that were retrospectively applied to the Study 1: MAGELLAN population for this analysis included: active gastroduodenal ulcer within 3 months of randomization/currently symptomatic; any bleeding within 3 months prior to randomization or during index hospitalization; active cancer at randomization; medical history of severe bronchiectasis/pulmonary cavitation; or dual antiplatelet therapy at baseline. Subjects that met one or more of these criteria prior to or at randomization using standardized MedDRA queries or preferred terms of MedDRA version 13.1 based on data entered into the case report forms in the original MAGELLAN database were excluded from the subpopulation analysis.
(§2) The MAGELLAN study (Study 1) randomized 8,101 patients from 562 sites in 52 countries and the safety population of patients that received at least one dose of study medication was 7,998 patients. The five key risk factors for major bleeding events in MAGELLAN were identified using study data forms as described herein. With the retrospective use of these risk factors, 1,551 patients were excluded from MAGELLAN and the remaining 6,447 patients, approximately 80% of MAGELLAN, represented the subpopulation. Patients in both treatment groups had no differences in baseline characteristics, and had similar medical histories, with at least 99% of patients having complete immobility or decreased mobility and median total number of days in hospital of 10.

[4] = test system: bleeding events in MAGELLAN subpopulation; test: Retrospective analysis of MAGELLAN subpopulation: safety (bleeding); type: in vivo
Text: as §1, §2

[5] = entire study duration (Day 1 to 90)

## Enoxaparin
[1]; Day 1 to 10, entire population
  Fatal bleeding events, number: 1 cases
[1]; Day 1 to 35
  Treatment-emergent fatal bleeding events, number: 1 subjects
[1]; Day 1 to Day 10
  Major bleeding events, incidence: 0.3%
[1]; Day 1 to Day 35
  Investigator-reported SAEs, incidence: 0.8%
  Investigator-reported TEAEs, incidence: 8.5%
  Investigator-reported drug-related TEAEs, incidence: 4.2%
  Major bleeding events, incidence: 0.4%
  Pulmonary bleeding site (critical site bleeding), incidence: 0%
  Retroperitoneal bleeding site (critical site bleeding), incidence: 0%
[1]; all phases of the study
  Clinically relevant non-major bleeding events, incidence: 2.1%
  Major bleeding events, incidence: 0.9%
  Minimal bleeding events, incidence: 8.2%
[1]; entire study duration
  Pulmonary embolism confirmed (deaths), number: 1 subjects
[1]; [5]
  Investigator-reported deaths, incidence: 6.5%
  VTE-related deaths, incidence: 1.2%
[1]; follow-up phase
  Major bleeding events, incidence: 0.6%
[1]; in vivo
  Bleeding events that required blood transfusions of 2 units: 0.2%
  Bleeding events that resulted in a fall of Hb to ≥2 g/dL: 0.2%
  Investigator-reported TEAEs leading to permanent discontinuation of study drug: 1.5%
[1]; rivaroxaban-enoxaparin phase (Day 1 to 10)
  Clinically relevant bleeding events, incidence: 1.2%
[1]; rivaroxaban-enoxaparin/placebo phase (Day 1 to 35)
  Clinically relevant bleeding events, incidence: 1.7%
[1]; rivaroxaban-placebo phase (Day 10 to 35)
  Clinically relevant bleeding events, incidence: 0.5%
[2]; Day 1
  Baseline value expressed in IU/mL (PiCT two step): below the lower limit of quantitation
  Mean peak concentration expressed in IU/mL (PiCT two step): 0.32 IU/mL
[2]; Day 10
  Mean peak concentration expressed in IU/mL (PiCT two step): 0.31 IU/mL
  Trough concentration expressed in IU/mL (PiCT two step): 0.11 IU/mL
[2]; acute respiratory insufficiency, Baseline
  D-dimer, median: 0.57 µg/mL
[2]; acute respiratory insufficiency, Day 1 peak
  D-dimer, median: 0.66 µg/mL
[2]; acute respiratory insufficiency, Day 10 peak
  D-dimer, median: 0.70 µg/mL
[2]; acute respiratory insufficiency, Day 10 trough
  D-dimer, median: 0.46 µg/mL
[2]; entire study population, Baseline
  D-dimer, median: 0.95 µg/mL
[2]; entire study population, Day 1 peak
  D-dimer, median: 0.94 µg/mL
[2]; entire study population, Day 10 peak
  D-dimer, median: 0.66 µg/mL
[2]; entire study population, Day 35 peak
  D-dimer, median: 0.67 µg/mL
[2]; in vivo
  Influence on prothrombin time: no influence
[2]; sparse sampling
  Change in clotting time, PiCT one step: No change
[2]; sparse sampling, Baseline
  Prothrombin time, median: 14.4 s
[2]; sparse sampling, Day 1
  Prolongation of PiCT two step assay: 23.6 s
[2]; sparse sampling, Day 1 peak
  Prothrombin time, median: 14.8 s
[2]; sparse sampling, Day 10
  Prolongation of PiCT two step assay: 19.8 s
[2]; sparse sampling, Day 10 peak
  Prothrombin time, median: 14.2 s
[2]; sparse sampling, Day 35 peak
  Prothrombin time, median: 13.8 s
[3]; Day 10, per-protocol analysis set
  Primary efficacy endpoint outcome, incidence: 3.0%
[3]; Day 35
  Asymptomatic lower extremity proximal DVT, incidence: 4.4%
  VTE-related death, incidence: 1.0%
[3]; Day 35, mITT
  Primary efficacy outcome, incidence: 5.7%
[4]; post-discharge phase, entire population and subpopulation
  Fatal bleeds, number: 0
[4]; subpopulation, Day 10
  Fatal bleeds, number: 1
[4]; subpopulation, Day 35
  Clinically relevant bleeding (major and NMCR), incidence: 1.5%
[4]; subpopulation, through Day 35
  Major bleeding, incidence: 0.47%
